Patent US10426753B2, “Supramolecular combinatorial therapeutics” (INVICTUS ONCOLOGY PVT. LTD., priority 2014, dated 2019)

Experiments:
Assay type in all cases: cell-based
Conditions in all cases: 48, 72 and 96 hrs, supramolecular taxane conjugate
MDA-MB-231 = assay: Cell viability assay (MTT), breast cancer cell line
Procedure: (§1) Mammalian cells were grown in specific culture media, supplemented with 10% fetal bovine serum (FBS) and antibiotics in a humidified environment containing 5% CO2 at 37° C.
(§2) The effects of supramolecular taxane conjugates on the viability of cancer cells were measured using MTT assay (^6,7,8). Cells in 100 μl culture-media were plated in 96-well plates (3000-5000 cells/well) and allowed to adhere overnight in a humidified environment containing 5% CO2 at 37° C. Fresh media (100 μL) containing different concentrations of compounds were added to cells and incubated for 48, 72 and 96 hrs. Following incubation, cell viability was determined using the MTT assay. Similar assay was performed on normal human epithelial cells seeded in 100 μl media in 96-well plate (5000-10,000 cells per well), under identical incubation time and dosage of compounds, used for cancer cells to determine the effect of this targeted therapy on normal cells. The cell viability was plotted as dose-response curves using curve fitting.
(§3) The effects of compounds (New taxane 2 and 16) were evaluated in vitro in comparison with standard taxanes in breast cancer (MDA-MB-231), ovarian cancer (SKOV-3), lung cancer (A549), prostate cancer (DU-145), and colorectal cancer (HCT-116) cell lines.

SKOV-3 = assay: Cell viability assay (MTT), ovarian cancer cell line
Procedure: as §1, §2, §3

A549 = assay: Cell viability assay (MTT), lung cancer cell line
Procedure: as §1, §2, §3

DU-145 = assay: Cell viability assay (MTT), prostate cancer cell line
Procedure: as §1, §2, §3

HCT-116 = assay: Cell viability assay (MTT), colorectal cancer cell line
Procedure: as §1, §2, §3

Measured: efficacy on cell viability versus standard taxanes

CO[C@H]1C(=O)[C@]2(C)[C@@H](OC)C[C@H]3OC[C@@]3(OC(C)=O)[C@H]2[C@H](OC(=O)c2ccccc2)[C@]2(O)C[C@H](OC(=O)[C@H](OC(=O)CCC(=O)NCC(=O)O[C@H]3CC[C@@]4(C)C(=CCC5C4CC[C@@]4(C)C5CC[C@@H]4[C@H](C)CCCC(C)C)C3)[C@@H](NC(=O)OC(C)(C)C)c3ccccc3)C(C)=C1C2(C)C (stereo partly shown) [compound 2]
comparable efficacy to standard taxanes: all assays above

CC(=O)O[C@H]1C(=O)[C@@]2(C)[C@H]([C@H](OC(=O)c3ccccc3)[C@]3(O)C[C@H](OC(=O)[C@H](OC(=O)CCC(=O)NCC(=O)O[C@H]4CC[C@@]5(C)C(=CCC6C5CC[C@@]5(C)C6CC[C@@H]5[C@H](C)CCCC(C)C)C4)[C@@H](NC(=O)c4ccccc4)c4ccccc4)C(C)=C1C3(C)C)[C@]1(OC(C)=O)CO[C@@H]1C[C@@H]2O (stereo partly shown) [compound 16]
comparable efficacy to standard taxanes: all assays above
